Test results as given in ChEMBL document CHEMBL1201862, “PubChem BioAssay data set” (2004).
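Results reflect a 48-hour exposure of cells in 96-well plates to compound at five concentrations. Here, GI50 denotes the concentration required for 50% inhibition of growth.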 The source made the active and inactive calls. Cut-off read from the data, not from the text of the source: active = GI50 up to about 1.1 µM and inactive = higher.

Assays:
Assay in all cases: growth of human tumour cells (NCI), 48 h
A549 = tested on: A549
ACHN = tested on: ACHN
CCRF-CEM = tested on: CCRF-CEM
COLO 205 = tested on: COLO 205
EKVX = tested on: EKVX
HCC 2998 = tested on: HCC 2998
HCT-116 = tested on: HCT-116
HOP-62 = tested on: HOP-62
IGROV-1 = tested on: IGROV-1
K562 = tested on: K562
MOLT-4 = tested on: MOLT-4
Malme-3M = tested on: Malme-3M
NCI-H460 = tested on: NCI-H460
NCI-H522 = tested on: NCI-H522
OVCAR-5 = tested on: OVCAR-5
OVCAR-8 = tested on: OVCAR-8
SF-268 = tested on: SF-268
SW-620 = tested on: SW-620
TK-10 = tested on: TK-10
UACC-62 = tested on: UACC-62

Measured: GI50

NNc1nnc(-c2ccccc2)nc1Cc1ccccc1
inactive: A549 6.41 µM | ACHN 4.04 µM | CCRF-CEM 2.64 µM | COLO 205 7.53 µM | EKVX 22.3 µM | HCC 2998 3.39 µM | HCT-116 7.18 µM | HOP-62 2.69 µM | IGROV-1 10.9 µM | K562 5.65 µM | MOLT-4 3.19 µM | Malme-3M 3.56 µM | NCI-H460 4.17 µM | NCI-H522 5.4 µM | OVCAR-5 6.65 µM | OVCAR-8 4.52 µM | SF-268 3.64 µM | SW-620 5.13 µM | TK-10 9.35 µM | UACC-62 3.62 µM

COC(=O)C1C(C(=O)OC)N(Cc2ccccc2)C(=O)N1Cc1ccccc1 (stereo not given)
inactive: A549 > 100 µM | ACHN > 100 µM | CCRF-CEM 57.4 µM | COLO 205 > 100 µM | EKVX > 100 µM | HCC 2998 > 100 µM | HCT-116 > 100 µM | HOP-62 > 100 µM | IGROV-1 85.7 µM | K562 45.6 µM | MOLT-4 22.8 µM | Malme-3M > 100 µM | NCI-H460 69.5 µM | NCI-H522 37.5 µM | OVCAR-5 > 100 µM | OVCAR-8 > 100 µM | SF-268 > 100 µM | SW-620 > 100 µM | TK-10 > 100 µM | UACC-62 64.6 µM

COc1ccc(/C(Cl)=C(\C=O)c2ccccc2)cc1OC
inactive: A549 38.7 µM | ACHN 23.3 µM | CCRF-CEM 15.1 µM | COLO 205 10.1 µM | EKVX 3.6 µM | HCC 2998 38.5 µM | HCT-116 23.4 µM | HOP-62 17.8 µM | IGROV-1 > 100 µM | K562 19.2 µM | MOLT-4 6.85 µM | Malme-3M 61 µM | NCI-H460 28.8 µM | NCI-H522 7.1 µM | OVCAR-5 > 100 µM | OVCAR-8 12.7 µM | SF-268 33.1 µM | SW-620 12.9 µM | TK-10 21.4 µM | UACC-62 7.6 µM

Cc1nc2[nH]ncn2c(=O)c1CCCl
inactive: A549 > 10 µM | ACHN > 10 µM | CCRF-CEM > 10 µM | COLO 205 > 10 µM | EKVX > 10 µM | HCC 2998 > 10 µM | HCT-116 > 10 µM | HOP-62 > 10 µM | IGROV-1 > 10 µM | K562 > 10 µM | MOLT-4 > 10 µM | Malme-3M > 10 µM | NCI-H460 > 10 µM | NCI-H522 > 10 µM | OVCAR-5 > 10 µM | OVCAR-8 > 10 µM | SF-268 > 10 µM | SW-620 > 10 µM | TK-10 > 10 µM | UACC-62 > 10 µM

CCC(C(=O)c1ccc(OC)c(OC)c1)N(C(=O)C(F)(F)F)C(C)c1ccccc1 (stereo not given)
inactive: A549 > 100 µM | ACHN > 100 µM | CCRF-CEM > 100 µM | COLO 205 > 100 µM | EKVX > 100 µM | HCC 2998 > 100 µM | HCT-116 > 100 µM | HOP-62 > 100 µM | IGROV-1 > 100 µM | K562 > 100 µM | MOLT-4 > 100 µM | Malme-3M > 100 µM | NCI-H460 > 100 µM | NCI-H522 > 100 µM | OVCAR-5 > 100 µM | OVCAR-8 > 100 µM | SF-268 83.9 µM | SW-620 > 100 µM | TK-10 > 100 µM | UACC-62 > 100 µM

CC(=O)OC1(C#N)CC2OC1C1C2N=NN1C(=O)OC(C)(C)C (stereo not given)
inactive: A549 34.4 µM | ACHN > 100 µM | CCRF-CEM 15.2 µM | COLO 205 > 100 µM | EKVX 68.2 µM | HCC 2998 44.5 µM | HCT-116 12.5 µM | HOP-62 > 100 µM | IGROV-1 35 µM | K562 33.5 µM | MOLT-4 50.1 µM | Malme-3M 21.9 µM | NCI-H460 32 µM | NCI-H522 > 100 µM | OVCAR-5 54.6 µM | OVCAR-8 34.6 µM | SF-268 37.1 µM | SW-620 30.7 µM | TK-10 20.4 µM | UACC-62 19.5 µM
